# Experimental data published in patent US20180099931A1 (AbbVie S.à.r.l., priority 2016, published 2018).
# Read-outs that look alike come from different tables or passages of the source.
# Molecular target: T1, F508delCFTR (Homo sapiens, UniProt P13569, DEL508-508)
# T1 construct: expressed in transfected cells; host or cells: CFBE41o- human lung-derived epithelial cells (CFBE4lo-F508delCFTR-HRP), doxycycline-inducible
# Test: Cell Surface Expression-Horse Radish Peroxidase (CSE-HRP) Assay;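 for Maximum % activity (with co-corrector): co-corrector and positive control are both the same reference corrector at 2 µM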;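 for Maximum % activity (without co-corrector): percent of the 2 µM on-plate positive control corrector response above DMSO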
# Format: cell-based
# Details: for Maximum % activity (with co-corrector) / Emax: maximum at any tested concentration, normalized to on-plate positive control; for Emax: read-out: Maximum % activity (without co-corrector)
# [1] = test compound without co-corrector, read-out: EC50 (without co-corrector)
# [2] = with co-corrector (2 μM of 3-[(2R,4R)-4-({[1-(2,2-difluoro-1,3-benzodioxol-5-yl)cyclopropyl]carbonyl}amino)-7-methoxy-3,4-dihydro-2H-chromen-2-yl]benzoic acid), read-out: EC50 (with co-corrector)
# [3] = test compound without co-corrector
# [4] = with co-corrector (2 μM of 3-[(2R,4R)-4-({[1-(2,2-difluoro-1,3-benzodioxol-5-yl)cyclopropyl]carbonyl}amino)-7-methoxy-3,4-dihydro-2H-chromen-2-yl]benzoic acid)
# [5] = CSE-HRP, test compound without co-corrector, read-out: EC50 (without co-corrector)
# [6] = CSE-HRP, with co-corrector (2 μM of 3-[(2R,4R)-4-({[1-(2,2-difluoro-1,3-benzodioxol-5-yl)cyclopropyl]carbonyl}amino)-7-methoxy-3,4-dihydro-2H-chromen-2-yl]benzoic acid), read-out: EC50 (with co-corrector)
# [7] = CSE-HRP, with co-corrector (2 μM)
# T1 sequence (P13569 with tags, fused parts or gaps DEL508-508): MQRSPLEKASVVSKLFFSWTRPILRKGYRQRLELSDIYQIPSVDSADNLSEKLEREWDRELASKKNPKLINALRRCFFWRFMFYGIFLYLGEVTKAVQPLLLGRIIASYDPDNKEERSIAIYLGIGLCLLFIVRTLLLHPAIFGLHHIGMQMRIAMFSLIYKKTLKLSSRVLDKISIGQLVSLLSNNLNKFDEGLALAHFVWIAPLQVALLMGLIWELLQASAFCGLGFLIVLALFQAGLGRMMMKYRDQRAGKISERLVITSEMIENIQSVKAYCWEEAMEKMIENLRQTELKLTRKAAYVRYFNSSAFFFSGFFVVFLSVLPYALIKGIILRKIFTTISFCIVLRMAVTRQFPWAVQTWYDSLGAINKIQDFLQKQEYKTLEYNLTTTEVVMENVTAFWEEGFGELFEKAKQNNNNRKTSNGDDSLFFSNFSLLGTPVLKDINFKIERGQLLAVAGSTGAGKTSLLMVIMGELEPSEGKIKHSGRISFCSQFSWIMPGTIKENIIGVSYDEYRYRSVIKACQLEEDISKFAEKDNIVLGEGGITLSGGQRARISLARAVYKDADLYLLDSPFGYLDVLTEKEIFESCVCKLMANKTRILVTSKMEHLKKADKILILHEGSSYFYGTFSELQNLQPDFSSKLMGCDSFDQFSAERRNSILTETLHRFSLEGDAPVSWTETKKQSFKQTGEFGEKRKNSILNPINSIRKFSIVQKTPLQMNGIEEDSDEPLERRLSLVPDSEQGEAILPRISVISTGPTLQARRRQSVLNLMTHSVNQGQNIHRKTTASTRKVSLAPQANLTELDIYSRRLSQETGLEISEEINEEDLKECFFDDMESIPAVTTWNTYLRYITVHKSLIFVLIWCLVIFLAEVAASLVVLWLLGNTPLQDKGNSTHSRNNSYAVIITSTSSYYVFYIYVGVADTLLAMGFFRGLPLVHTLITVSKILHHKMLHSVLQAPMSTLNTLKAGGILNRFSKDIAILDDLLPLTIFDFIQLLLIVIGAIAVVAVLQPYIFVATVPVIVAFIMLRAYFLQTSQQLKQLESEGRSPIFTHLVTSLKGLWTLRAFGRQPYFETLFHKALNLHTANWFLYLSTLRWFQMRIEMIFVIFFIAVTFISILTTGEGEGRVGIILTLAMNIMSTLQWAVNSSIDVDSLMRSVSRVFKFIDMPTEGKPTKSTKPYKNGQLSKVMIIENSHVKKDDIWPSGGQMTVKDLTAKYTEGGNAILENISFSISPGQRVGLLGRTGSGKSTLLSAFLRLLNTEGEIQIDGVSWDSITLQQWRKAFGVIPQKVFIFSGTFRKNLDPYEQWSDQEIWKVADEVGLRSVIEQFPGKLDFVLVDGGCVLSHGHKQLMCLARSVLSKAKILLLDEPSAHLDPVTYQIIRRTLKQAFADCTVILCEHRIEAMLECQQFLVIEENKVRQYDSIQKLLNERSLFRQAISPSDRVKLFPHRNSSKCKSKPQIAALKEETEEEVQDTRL
SMILES,EC50 [1] [nM],EC50 [2] [nM],Maximum % activity (with co-corrector) (with co-corrector (2 μM)),Emax (without co-corrector) [%],Emax [3] [%],Maximum % activity (with co-corrector) [4],EC50 [5] [nM],EC50 [6] [nM],Maximum % activity (with co-corrector) [7],"Emax (CSE-HRP, without co-corrector) [%]"
"COc1ncc(C2CCC2)cc1CN[C@H]1[C@H](C(C)(C)C)[C@@H](C(=O)O)N(C(=O)OC(C)C)[C@H]1c1ccccc1C1CC1 [Example 93, (2S,3S,4S,5S)-3-tert-butyl-4-{[(5-cyclobutyl-2-methoxypyridin-3-yl)methyl]amino}-5-(2-cyclopropylphenyl)-1-{[(propan-2-yl)oxy]carbonyl}pyrrolidine-2-carboxylic acid]",1000 to 10000,< 1000,+++ (≥350),> 200,–,–,–,–,–,–
COc1ccc(CN[C@@H]2[C@@H](C(C)(C)C)[C@H](C(=O)O)N(C(=O)OC(C)C)[C@@H]2c2ccccc2)c(OC)c1 (racemic) [III-91],1000 to 10000,1000 to 10000,–,–,< 100,++ (≥150 and <350),–,–,–,–
COc1ccc(C(C)(C)C)cc1CN[C@H]1[C@H](C(C)(C)C)[C@@H](C(=O)O)N(C(=O)[C@H]2OCC[C@H]2C)[C@H]1c1ccccc1 (relative stereo) [II-269],–,–,–,–,–,–,1000 to 10000,1000 to 10000,+++ (≥350),> 200
COc1ccc(C(C)C)cc1CN[C@@H]1[C@@H](C(C)(C)C)[C@H](C(=O)O)N(C(=O)OC(C)C)[C@@H]1c1ccccc1 (racemic) [II-44],–,–,–,–,–,–,1000 to 10000,1000 to 10000,+++ (≥350),> 200
CC(C)(C)[C@@H]1[C@@H](NCc2cc(C(F)(F)F)cnc2Cl)[C@@H](c2ccccc2)N(C(=O)C2CCCCC2)[C@H]1C(=O)O (racemic) [II-15],–,–,–,–,–,–,< 1000,< 1000,+++ (≥350),< 100
COc1ccc(C(C)(C)C)cc1CN[C@H]1[C@H](C(C)(C)C)[C@@H](C(=O)O)N(C(=O)C(C)Oc2ccccc2F)[C@H]1c1ccccc1 (stereo partly drawn) [II-324],1000 to 10000,< 1000,–,–,> 200,+++ (≥350),–,–,–,–
COc1cc(Cl)ccc1CN[C@H]1[C@H](C(C)(C)C)[C@@H](C(=O)O)N(C(=O)C2CCCCC2)[C@H]1c1ncccc1OC (racemic) [III-143],> 10000,> 10000,+ (<150),–,< 100,–,–,–,–,–
"COc1ncc(C(F)(F)F)cc1CN[C@H]1[C@H](C(C)(C)OC)[C@@H](C(=O)O)N(C(=O)C2CCCCC2)[C@H]1c1ccccc1 [Example 22, (2S,3S,4S,5S)-1-(cyclohexanecarbonyl)-3-(2-methoxypropan-2-yl)-4-({[2-methoxy-5-(trifluoromethyl)pyridin-3-yl]methyl}amino)-5-phenylpyrrolidine-2-carboxylic acid]",< 1000,< 1000,+++ (≥350),100 to 200,–,–,–,–,–,–
Cc1cc(C(F)(F)F)cc(N[C@@H]2[C@@H](C3CC3)[C@H](C(=O)O)N(C(=O)C3CCCCC3)[C@@H]2c2ccccc2)n1 (racemic) [Example I-7],1000 to 10000,1000 to 10000,++ (≥150 and <350),< 100,–,–,–,–,–,–
COc1ncc(C(F)(F)F)cc1CN[C@H]1[C@H](C(C)(C)C)[C@@H](C(=O)O)N(C(=O)[C@H](C)c2ccccc2)[C@H]1c1cccnc1OC [Example I-240],1000 to 10000,1000 to 10000,+++ (≥350),< 100,–,–,–,–,–,–
COc1ccc(C(F)(F)F)cc1CN[C@H]1[C@H](C(C)(C)OC)[C@@H](C(=O)O)N(C(=O)C2CCCCC2)[C@H]1c1ccccc1OC [II-295],–,–,–,–,–,–,1000 to 10000,1000 to 10000,+++ (≥350),100 to 200
COc1cnc(C2CC3CCC2C3)cc1CN[C@H]1[C@H](C(C)(C)C)[C@@H](C(=O)O)N(C(=O)C2CCCCC2)[C@H]1c1ccccc1 (stereo partly drawn) [II-403],1000 to 10000,1000 to 10000,–,–,100 to 200,+++ (≥350),–,–,–,–
COc1ccc(C(C)(C)C)cc1CN[C@H]1[C@H](C(C)(C)C)[C@@H](C(=O)O)N(C(=O)C2CCC(F)(F)CC2)[C@H]1c1ccccc1 [II-377],1000 to 10000,1000 to 10000,–,–,100 to 200,+++ (≥350),–,–,–,–
COc1cccc([C@@H]2[C@H](NCc3ccccc3OC(F)F)[C@@H](C(C)(C)C)[C@H](C(=O)O)N2C(=O)C2CCCCO2)n1 (mixture of isomers) [Example I-18],1000 to 10000,1000 to 10000,+++ (≥350),< 100,–,–,–,–,–,–
CC(C)(C)[C@@H]1[C@@H](Nc2ccc(C(F)(F)F)cn2)[C@@H](c2ccccc2)N(C(=O)C2CCCCC2)[C@H]1C(=O)O (racemic) [III-5],1000 to 10000,1000 to 10000,–,–,< 100,++ (≥150 and <350),–,–,–,–
COc1ccc(C(C)(C)C)cc1CN[C@H]1[C@H](C(C)(C)C)[C@@H](C(=O)O)N(C(=O)OC(C)C)[C@H]1c1cccnc1OC [II-511],1000 to 10000,1000 to 10000,–,–,100 to 200,+++ (≥350),–,–,–,–
COc1cc(Cl)ccc1CN[C@H]1[C@H](C(C)(C)C)[C@@H](C(=O)O)N(C(=O)C2CCCCC2)[C@H]1c1cccnc1C [II-96],–,–,–,–,–,–,1000 to 10000,1000 to 10000,+++ (≥350),100 to 200
CCS(=O)(=O)NC(=O)[C@H]1[C@H](C(C)(C)C)[C@@H](Nc2cc(C(F)(F)F)cc(C)n2)[C@@H](c2ccccc2)N1C(=O)C1CCCCC1 (racemic) [III-53],> 10000,1000 to 10000,–,–,< 100,++ (≥150 and <350),–,–,–,–
CC(C)(C)[C@H]1[C@H](NCc2ccc3occc3c2)[C@H](c2ccccc2)N(C(=O)C2CCCCC2)[C@@H]1C(=O)O [III-135],> 10000,1000 to 10000,++ (≥150 and <350),–,< 100,–,–,–,–,–
CC(C)(C)[C@@H]1[C@@H](NCc2cc(C(F)(F)F)ccc2OCCO)[C@@H](c2ccccc2)N(C(=O)C2CCCCC2)[C@H]1C(=O)O (racemic) [III-66],> 10000,1000 to 10000,–,–,< 100,++ (≥150 and <350),–,–,–,–
COc1ccc(-c2ccnnc2)cc1CN[C@H]1[C@H](C(C)(C)C)[C@@H](C(=O)O)N(C(=O)C2CCCCC2)[C@H]1c1ccccc1 [Example I-125],> 10000,> 10000,+ (<150),< 100,–,–,–,–,–,–
COc1ncc(Cc2ccccc2)cc1CN[C@H]1[C@H](C(C)(C)C)[C@@H](C(=O)O)N(C(=O)C2CCCCC2)[C@H]1c1ccccc1 [Example I-69],< 1000,< 1000,+++ (≥350),100 to 200,–,–,–,–,–,–
COc1ccc(C(F)(F)F)cc1CN[C@H]1[C@H](C(C)(C)C)[C@@H](C(=O)O)N(C(=O)[C@H]2CCCC(F)(F)C2)[C@H]1c1ccccc1 [III-185],1000 to 10000,1000 to 10000,++ (≥150 and <350),–,< 100,–,–,–,–,–
COc1ncc(C2CCC2)cc1CN[C@H]1[C@H](C(C)(C)C)[C@@H](C(=O)O)N(C(=O)C2COc3ccccc3O2)[C@H]1c1ccccc1 (relative stereo) [Example I-205],1000 to 10000,1000 to 10000,++ (≥150 and <350),< 100,–,–,–,–,–,–
COc1cc(C(F)(F)F)ccc1CN[C@H]1[C@H](C(C)(C)C)[C@@H](C(=O)O)N(C(=O)c2ccccc2)[C@H]1c1ccccc1 [II-152],–,–,–,–,–,–,1000 to 10000,1000 to 10000,+++ (≥350),< 100
COc1ccc(C(C)(C)C)cc1CN[C@H]1[C@H](C(C)(C)C)[C@@H](C(=O)O)N(C(=O)C2C3CCCC32)[C@H]1c1cccnc1N(C)C (stereo partly drawn) [Example I-201],1000 to 10000,< 1000,+++ (≥350),> 200,–,–,–,–,–,–
COc1ccc(C(C)(C)C)cc1CN[C@H]1[C@H](C(C)(C)C)[C@@H](C(=O)O)N(C(=O)C2CC3C(CC2C)C3(C)C)[C@H]1c1ccccc1 (stereo partly drawn) [II-376],1000 to 10000,1000 to 10000,–,–,> 200,+++ (≥350),–,–,–,–
COc1ccc(-c2ccccc2)cc1CN[C@H]1[C@H](C(C)(C)C)[C@@H](C(=O)O)N(C(=O)[C@@H]2CCCCO2)[C@H]1c1cccnc1N(C)C [II-450],1000 to 10000,< 1000,–,–,> 200,+++ (≥350),–,–,–,–
"COc1cc(C(F)(F)F)ccc1CN[C@@H]1[C@@H](C(C)(C)C)[C@H](C(=O)O)N(C(=O)C(C)Oc2ccccc2)[C@@H]1c1ccccc1 (single isomer, unassigned) [II-58]",–,–,–,–,–,–,1000 to 10000,1000 to 10000,++ (≥150 and <350),< 100
COc1ncc(C(C)(C)C)cc1CN[C@H]1[C@H](C(C)(C)C)[C@@H](C(=O)O)N(C(=O)[C@@H]2CCCCO2)[C@H]1c1cccnc1N(C)C [Example I-142],1000 to 10000,1000 to 10000,+++ (≥350),> 200,–,–,–,–,–,–
